Reference: ChEMBL document CHEMBL2440076, “New triarylpyrazoles as broad-spectrum anticancer agents: design, synthesis, and biological evaluation” (Eur J Med Chem, 2013)

How the values were obtained:
BT-549 [1] = test: Growth inhibition of human BT549 cells assessed as cell growth at 10 uM after 48 hrs by sulforhodamine B assay; assay type: functional; settings: BT-549, 48 h, read-out: Activity
[2] = Growth inhibition of human Hs 578T cells assessed as cell growth at 10 uM after 48 hrs by sulforhodamine B assay; assay type: functional; settings: read-out: Activity
MCF7 [3] = test: Growth inhibition of human MCF7 cells assessed as cell growth at 10 uM after 48 hrs by sulforhodamine B assay; assay type: functional; settings: MCF7, 48 h, read-out: Activity
DU-145 [4] = test: Growth inhibition of human DU145 cells assessed as cell growth at 10 uM after 48 hrs by sulforhodamine B assay; assay type: functional; settings: DU-145, 48 h, read-out: Activity
SN12C = test: Growth inhibition of human SN12C cells assessed as cell growth at 10 uM after 48 hrs by sulforhodamine B assay; assay type: functional; settings: read-out: Activity
CAKI-1 = test: Growth inhibition of human CAKI-1 cells assessed as cell growth at 10 uM after 48 hrs by sulforhodamine B assay; assay type: functional; settings: CAKI-1, 48 h, read-out: Activity
SW-620 = test: Growth inhibition of human SW620 cells after 48 hrs by sulforhodamine B assay; assay type: functional; settings: SW-620, 48 h
KM12 = test: Growth inhibition of human KM12 cells after 48 hrs by sulforhodamine B assay; assay type: functional, cell-based; settings: KM12, 48 h
NCI-H522 = test: Growth inhibition of human NCI-H522 cells after 48 hrs by sulforhodamine B assay; assay type: functional; settings: NCI-H522, 48 h
NCI-H460 = test: Growth inhibition of human NCI-H460 cells after 48 hrs by sulforhodamine B assay; assay type: functional; settings: NCI-H460, 48 h
NCI-H322M [5] = test: Growth inhibition of human NCI-H322M cells after 48 hrs by sulforhodamine B assay; assay type: functional
A549 = test: Growth inhibition of human A549/ATCC cells after 48 hrs by sulforhodamine B assay; assay type: functional; settings: A549, 48 h
RPMI-8226 = test: Growth inhibition of human RPMI8226 cells after 48 hrs by sulforhodamine B assay; assay type: functional, cell-based; settings: RPMI-8226, 48 h
K562 [6] = test: Growth inhibition of human K562 cells after 48 hrs by sulforhodamine B assay; assay type: functional; settings: K562, 48 h
CCRF-CEM [7] = test: Growth inhibition of human CCRF-CEM cells after 48 hrs by sulforhodamine B assay; assay type: functional
RXF 393 [8] = test: Growth inhibition of human RXF393 cells assessed as cell growth at 10 uM after 48 hrs by sulforhodamine B assay; assay type: functional; settings: RXF 393, 48 h, read-out: Activity
ACHN = test: Growth inhibition of human ACHN cells assessed as cell growth at 10 uM after 48 hrs by sulforhodamine B assay; assay type: functional; settings: read-out: Activity
OVCAR-5 [9] = test: Growth inhibition of human OVCAR5 cells assessed as cell growth at 10 uM after 48 hrs by sulforhodamine B assay; assay type: functional; settings: OVCAR-5, 48 h, read-out: Activity
OVCAR-4 = test: Growth inhibition of human OVCAR4 cells assessed as cell growth at 10 uM after 48 hrs by sulforhodamine B assay; assay type: functional; settings: OVCAR-4, 48 h, read-out: Activity
UACC-62 = test: Growth inhibition of human UACC62 cells assessed as cell growth at 10 uM after 48 hrs by sulforhodamine B assay; assay type: functional; settings: UACC-62, 48 h, read-out: Activity
IGROV-1 [10] = test: Growth inhibition of human IGROV1 cells assessed as cell growth at 10 uM after 48 hrs by sulforhodamine B assay; assay type: functional; settings: IGROV-1, 48 h, read-out: Activity
UACC-257 = test: Growth inhibition of human UACC257 cells assessed as cell growth at 10 uM after 48 hrs by sulforhodamine B assay; assay type: functional; settings: UACC-257, 48 h, read-out: Activity
U-251 = test: Growth inhibition of human U251 cells assessed as cell growth at 10 uM after 48 hrs by sulforhodamine B assay; assay type: functional; settings: U-251, 48 h, read-out: Activity
NCI-H322M [11] = test: Growth inhibition of human NCI-H322M cells assessed as cell growth at 10 uM after 48 hrs by sulforhodamine B assay; assay type: functional; settings: read-out: Activity
BT-549 [12] = test: Growth inhibition of human BT549 cells after 48 hrs by sulforhodamine B assay; assay type: functional; settings: BT-549, 48 h
MCF7 [13] = test: Growth inhibition of human MCF7 cells after 48 hrs by sulforhodamine B assay; assay type: functional; settings: MCF7, 48 h
DU-145 [14] = test: Growth inhibition of human DU145 cells after 48 hrs by sulforhodamine B assay; assay type: functional; settings: DU-145, 48 h
UO-31 = test: Growth inhibition of human UO31 cells after 48 hrs by sulforhodamine B assay; assay type: functional; settings: UO-31, 48 h
RXF 393 [15] = test: Growth inhibition of human RXF393 cells after 48 hrs by sulforhodamine B assay; assay type: functional; settings: RXF 393, 48 h
A498 = test: Growth inhibition of human A498 cells after 48 hrs by sulforhodamine B assay; assay type: functional, cell-based; settings: A498, 48 h
OVCAR-8 = test: Growth inhibition of human OVCAR8 cells after 48 hrs by sulforhodamine B assay; assay type: functional; settings: OVCAR-8, 48 h
OVCAR-5 [16] = test: Growth inhibition of human OVCAR5 cells after 48 hrs by sulforhodamine B assay; assay type: functional; settings: OVCAR-5, 48 h
IGROV-1 [17] = test: Growth inhibition of human IGROV1 cells after 48 hrs by sulforhodamine B assay; assay type: functional; settings: IGROV-1, 48 h
K562 [18] = test: Growth inhibition of human K562 cells assessed as cell growth at 10 uM after 48 hrs by sulforhodamine B assay; assay type: functional; settings: K562, 48 h, read-out: Activity
CCRF-CEM [19] = test: Growth inhibition of human CCRF-CEM cells assessed as cell growth at 10 uM after 48 hrs by sulforhodamine B assay; assay type: functional; settings: read-out: Activity
[20] = read-out: LC50 (the source's name)

## COc1cc(-c2nn(-c3cccc(NC(=O)Nc4ccc(Cl)c(C(F)(F)F)c4)c3)cc2-c2ccncc2)ccc1Cl
BT-549 [1]
  growth at 10 µM: 7.16%
[2]
  growth at 10 µM: 2.21%
MCF7 [3]
  growth at 10 µM: 0.14%
DU-145 [4]
  growth at 10 µM: 20.3%
SN12C
  growth at 10 µM: 12.6%
CAKI-1
  growth at 10 µM: 14.7%
SW-620
  GI50: 1290 nM
  TGI: 29.9 µM
SW-620; [20]
  CC50: > 32.5 µM
KM12
  GI50: 1060 nM
  TGI: 3.92 µM
KM12; [20]
  CC50: 14.9 µM
NCI-H522
  GI50: 1140 nM
  LC50 (concentration killing 50% of cells): > 32.5 µM
  TGI: 6.06 µM
NCI-H460
  GI50: 1110 nM
  LC50: > 32.5 µM
  TGI: 4.79 µM
NCI-H322M [5]
  GI50: 1500 nM
  TGI: 13.9 µM
NCI-H322M [5]; [20]
  CC50: > 32.5 µM
A549
  GI50: 1020 nM
  LC50 (concentration killing 50% of starting cells): > 32.5 µM
  TGI: 16.7 µM
RPMI-8226
  GI50: 868 nM
  IC50: 870 nM
  TGI: 3.25 µM
RPMI-8226; [20]
  CC50: > 32.5 µM
K562 [6]
  GI50: 1210 nM
  TGI: > 32.5 µM
K562 [6]; [20]
  CC50: > 32.5 µM
CCRF-CEM [7]
  GI50: 980 nM
  LC50: > 32.5 µM
  TGI: > 32.5 µM
RXF 393 [8]
  growth at 10 µM: -27.8%
ACHN
  growth at 10 µM: 9.33%
OVCAR-5 [9]
  growth at 10 µM: 35.8%
OVCAR-4
  growth at 10 µM: 20.8%
UACC-62
  growth at 10 µM: -43.8%
IGROV-1 [10]
  growth at 10 µM: 25.6%
UACC-257
  growth at 10 µM: -37.6%
U-251
  growth at 10 µM: -20.9%
NCI-H322M [11]
  growth at 10 µM: 32.3%
BT-549 [12]
  GI50: 2360 nM
  LC50 (50% lethal concentration): > 32.5 µM
  TGI: 10.2 µM
MCF7 [13]
  GI50: 919 nM
  LC50: > 32.5 µM
  TGI: > 32.5 µM
DU-145 [14]
  GI50: 1500 nM
  LC50: > 32.5 µM
  TGI: > 32.5 µM
UO-31
  GI50: 865 nM
  TGI: 4.1 µM
UO-31; [20]
  CC50: > 32.5 µM
RXF 393 [15]
  GI50: 1180 nM
  LC50 (concentration killing 50% of cells): > 32.5 µM
  TGI: 6.29 µM
A498
  GI50: 837 nM
  IC50: 840 nM
  TGI: 6.97 µM
A498; [20]
  CC50: > 32.5 µM
OVCAR-8
  GI50: 1050 nM
  TGI: 5.87 µM
OVCAR-8; [20]
  CC50: > 32.5 µM
OVCAR-5 [16]
  GI50: 3.09 µM
  LC50 (concentration killing 50% of cells): > 32.5 µM
  TGI: 11 µM
IGROV-1 [17]
  GI50: 1200 nM
  LC50 (concentration killing 50% of cells): > 32.5 µM
  TGI: 4.22 µM
K562 [18]
  growth at 10 µM: 3.8%
CCRF-CEM [19]
  growth at 10 µM: -8.04%
